No end group written: not given here.
Tests used:
E. faecium 602589 = details: E. faecium 602589, isolated from blood
How it was run: (§1)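 Indicator strains were grown in BHI medium at 30° C without shaking and challenged with bacteriocin in a microtiter plate assay. MIC is the lowest bacteriocin concentration that inhibits growth by at least 50%, judged as 50% of the turbidity of the bacteriocin-free control culture.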

E. faecium P040 INV-25 = details: E. faecium P040 INV-25, isolated from blood
How it was run: as §1

E. faecium UW6920 = details: E. faecium UW6920, isolated from blood
How it was run: as §1

E. faecium PO1402593* = details: E. faecium PO1402593, isolated from blood, Vancomycin-resistant
How it was run: as §1

E. faecium P032 inv-4 = details: E. faecium P032 inv-4, isolated from blood
How it was run: as §1

E. faecium A11 EFH2/00 = details: E. faecium A11 EFH2/00, isolated from blood
How it was run: as §1

E. faecium 130409015079* = details: E. faecium 130409015079, isolated from blood, Vancomycin-resistant
How it was run: as §1

E. faecium AH137 = details: E. faecium AH137, isolated from blood
How it was run: as §1

[1] = test system: E. faecium LMGT2787 resistant mutants; details: only HR type found
How it was run: as §1

[2] = test system: E. faecium and E. faecalis; details: 20 μl of 1 mg/ml bacteriocin on soft agar, overnight, 30° C. vs 45° C.
KAVA = test: MIC microtitre plate assay, pathogenic isolates; format: cell-based; details: KAVA
Procedure: The tested strains were obtained from the LMG collection. […] NisinZ and micrococcin P1 were purified from source. […] Garvicin KS is made up of 3 peptides:
Bacteriocin activity was determined using a microtitre plate assay. The plates were incubated at 30° C. for 8 h and the growth was measured spectrophotometrically at 600 nm (A600) with 15 min intervals using SPECTROstarNano (BMG LABTECH, Germany).

Sequence | MIC 50 (E. faecium 602589) | MIC 50 (E. faecium P040 INV-25) | MIC 50 (E. faecium UW6920) | MIC 50 (E. faecium PO1402593*) | MIC 50 (E. faecium P032 inv-4) | MIC 50 (E. faecium A11 EFH2/00) | MIC 50 (E. faecium 130409015079*) | MIC 50 (E. faecium AH137) | resistance of HR type mutants compared to the WT [1] | appearance of resistant mutants at growth temperature [2] | MIC (KAVA)
MKFKFNPTGTIVKKLTQYEIAWFKNKHGYYPWEIPRC [EntK1] | 0.045 µM | 0.02 µM | 0.045 µM | 0.02 µM | 0.02 µM | 0.045 µM | 0.02 µM | 0.01 µM | 500 times | only appeared at 30 °C but not at 45 °C | –
MLAKIKAMIKKFPNPYTLAAKLTTYEINWYKQQYGRYPWERPVA [EntEJ97] | 0.145 µM | 0.075 µM | 0.145 µM | 0.075 µM | 0.037 µM | 0.075 µM | 0.037 µM | 0.075 µM | 500 times | only appeared at 30 °C but not at 45 °C | >50 µg/mL

From patent US11648289B2, “Antibacterial method” (priority 2016, dated 2023)
